Test results from PubChem BioAssay (NCI).
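Abbreviation: GI50, concentration required for 50% inhibition of growth. TGI: concentration producing complete growth inhibition.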

How the values were obtained:
Assay in all cases: NCI-60 cell line screen, 384-well format
RPMI-8226 leukemia = tested on: RPMI-8226 leukemia
HT29 colon = tested on: HT29 colon
CAKI-1 renal = tested on: CAKI-1 renal
NCI/ADR-RES ovarian = tested on: NCI/ADR-RES ovarian
UACC-62 melanoma = tested on: UACC-62 melanoma
UACC-257 melanoma = tested on: UACC-257 melanoma
A549 NSCLC = tested on: A549 NSCLC
SR leukemia = tested on: SR leukemia
SF-295 CNS = tested on: SF-295 CNS
ACHN renal = tested on: ACHN renal
OVCAR-4 ovarian = tested on: OVCAR-4 ovarian
KM12 colon = tested on: KM12 colon
BT-549 breast = tested on: BT-549 breast
U251 glioblastoma = tested on: U251 glioblastoma
HCT-116 colon = tested on: HCT-116 colon
HL-60(TB) leukemia = tested on: HL-60(TB) leukemia
SK-MEL-2 melanoma = tested on: SK-MEL-2 melanoma
T-47D breast = tested on: T-47D breast
SK-MEL-28 melanoma = tested on: SK-MEL-28 melanoma
NCI-H226 lung = tested on: NCI-H226 lung
MOLT-4 leukemia = tested on: MOLT-4 leukemia
MDA-MB-231 breast = tested on: MDA-MB-231 breast
EKVX NSCLC = tested on: EKVX NSCLC
SK-MEL-5 melanoma = tested on: SK-MEL-5 melanoma
HCC-2998 colon = tested on: HCC-2998 colon
NCI-H322M lung = tested on: NCI-H322M lung
NCI-H522 lung = tested on: NCI-H522 lung
SN12C renal = tested on: SN12C renal
NCI-H460 NSCLC = tested on: NCI-H460 NSCLC
HOP-62 NSCLC = tested on: HOP-62 NSCLC
SNB-19 CNS = tested on: SNB-19 CNS
PC-3 prostate = tested on: PC-3 prostate
RXF 393 renal = tested on: RXF 393 renal
SW-620 colon = tested on: SW-620 colon
DU-145 prostate = tested on: DU-145 prostate
MDA-MB-468 breast = tested on: MDA-MB-468 breast
SK-OV-3 ovarian = tested on: SK-OV-3 ovarian
HS 578T breast = tested on: HS 578T breast
CCRF-CEM leukemia = tested on: CCRF-CEM leukemia
OVCAR-3 ovarian = tested on: OVCAR-3 ovarian
SNB-75 CNS = tested on: SNB-75 CNS
TK-10 renal = tested on: TK-10 renal
NCI-H23 lung = tested on: NCI-H23 lung
SF-268 CNS = tested on: SF-268 CNS
LOX IMVI melanoma = tested on: LOX IMVI melanoma
COLO 205 colon = tested on: COLO 205 colon
786-0 renal = tested on: 786-0 renal

CC[C@H](Nc1ncnc2nc[nH]c12)c1nc2cccc(F)c2c(=O)n1-c1ccccc1
GI50 (RPMI-8226 leukemia): 16.7 µM
TGI (RPMI-8226 leukemia): 36.5 µM
GI50 (HT29 colon): 58.2 µM
TGI (HT29 colon): > 100 µM
GI50 (CAKI-1 renal): 7.37 µM
TGI (CAKI-1 renal): > 67.4 µM
GI50 (NCI/ADR-RES ovarian): 54.7 µM
TGI (NCI/ADR-RES ovarian): > 100 µM
GI50 (UACC-62 melanoma): 19.4 µM
TGI (UACC-62 melanoma): > 100 µM
GI50 (UACC-257 melanoma): > 74.9 µM
TGI (UACC-257 melanoma): > 100 µM
GI50 (A549 NSCLC): 32 µM
TGI (A549 NSCLC): > 100 µM
GI50 (SR leukemia): 16.2 µM
TGI (SR leukemia): 32.6 µM
GI50 (SF-295 CNS): 23.1 µM
TGI (SF-295 CNS): > 76.3 µM
GI50 (ACHN renal): 13.2 µM
TGI (ACHN renal): > 100 µM
GI50 (OVCAR-4 ovarian): 64.6 µM
TGI (OVCAR-4 ovarian): > 100 µM
GI50 (KM12 colon): 24.2 µM
TGI (KM12 colon): > 100 µM
GI50 (BT-549 breast): 4.22 µM
TGI (BT-549 breast): 48.1 µM
GI50 (U251 glioblastoma): > 71.4 µM
TGI (U251 glioblastoma): > 100 µM
GI50 (HCT-116 colon): 39.9 µM
TGI (HCT-116 colon): > 100 µM
GI50 (HL-60(TB) leukemia): 4.61 µM
TGI (HL-60(TB) leukemia): 17.9 µM
GI50 (SK-MEL-2 melanoma): 24 µM
TGI (SK-MEL-2 melanoma): 70.8 µM
GI50 (T-47D breast): 5.22 µM
TGI (T-47D breast): 56.4 µM
GI50 (SK-MEL-28 melanoma): 27.5 µM
TGI (SK-MEL-28 melanoma): > 100 µM
GI50 (NCI-H226 lung): 37 µM
TGI (NCI-H226 lung): > 100 µM
GI50 (MOLT-4 leukemia): 10 µM
TGI (MOLT-4 leukemia): 22.1 µM
GI50 (MDA-MB-231 breast): 73.6 µM
TGI (MDA-MB-231 breast): > 100 µM
GI50 (EKVX NSCLC): 22.4 µM
TGI (EKVX NSCLC): > 84.8 µM
GI50 (SK-MEL-5 melanoma): 7.4 µM
TGI (SK-MEL-5 melanoma): > 45.7 µM
GI50 (HCC-2998 colon): 36.7 µM
TGI (HCC-2998 colon): > 93.5 µM
GI50 (NCI-H322M lung): 34.7 µM
TGI (NCI-H322M lung): > 100 µM
GI50 (NCI-H522 lung): 26.1 µM
TGI (NCI-H522 lung): > 100 µM
GI50 (SN12C renal): 16.6 µM
TGI (SN12C renal): > 100 µM
GI50 (NCI-H460 NSCLC): 38 µM
TGI (NCI-H460 NSCLC): > 100 µM
GI50 (HOP-62 NSCLC): > 59.5 µM
TGI (HOP-62 NSCLC): > 100 µM
GI50 (SNB-19 CNS): > 74.4 µM
TGI (SNB-19 CNS): > 100 µM
GI50 (PC-3 prostate): 6.18 µM
TGI (PC-3 prostate): > 100 µM
GI50 (RXF 393 renal): 1.4 µM
TGI (RXF 393 renal): 9.61 µM
GI50 (SW-620 colon): > 75.8 µM
TGI (SW-620 colon): > 100 µM
GI50 (DU-145 prostate): 45 µM
TGI (DU-145 prostate): > 100 µM
GI50 (MDA-MB-468 breast): 4.58 µM
TGI (MDA-MB-468 breast): 15.9 µM
GI50 (SK-OV-3 ovarian): 30.6 µM
TGI (SK-OV-3 ovarian): > 83.3 µM
GI50 (HS 578T breast): 12.5 µM
TGI (HS 578T breast): 50.3 µM
GI50 (CCRF-CEM leukemia): 5.93 µM
TGI (CCRF-CEM leukemia): 25.8 µM
GI50 (OVCAR-3 ovarian): 8.68 µM
TGI (OVCAR-3 ovarian): > 73.4 µM
GI50 (SNB-75 CNS): 0.783 µM
TGI (SNB-75 CNS): 6.15 µM
GI50 (TK-10 renal): > 38.3 µM
TGI (TK-10 renal): > 94.5 µM
GI50 (NCI-H23 lung): 38.2 µM
TGI (NCI-H23 lung): > 100 µM
GI50 (SF-268 CNS): 25.6 µM
TGI (SF-268 CNS): > 100 µM
GI50 (LOX IMVI melanoma): 43.2 µM
TGI (LOX IMVI melanoma): > 100 µM
GI50 (COLO 205 colon): > 67.3 µM
TGI (COLO 205 colon): > 100 µM
GI50 (786-0 renal): 10.6 µM
TGI (786-0 renal): > 100 µM

CC(C)Nc1cc(-c2c[nH]c(C(=O)N[C@H](CO)c3cccc(Cl)c3)c2)c(Cl)cn1
GI50 (RPMI-8226 leukemia): 0.366 µM
TGI (RPMI-8226 leukemia): 1.88 µM
GI50 (HT29 colon): 0.289 µM
TGI (HT29 colon): 13.2 µM
GI50 (CAKI-1 renal): 1.04 µM
TGI (CAKI-1 renal): 16.5 µM
GI50 (NCI/ADR-RES ovarian): 9.98 µM
TGI (NCI/ADR-RES ovarian): 22.2 µM
GI50 (UACC-62 melanoma): 0.0563 µM
TGI (UACC-62 melanoma): 0.895 µM
GI50 (UACC-257 melanoma): 0.144 µM
TGI (UACC-257 melanoma): 0.498 µM
GI50 (A549 NSCLC): 0.641 µM
TGI (A549 NSCLC): 13.4 µM
GI50 (SR leukemia): 1.01 µM
TGI (SR leukemia): 2.21 µM
GI50 (SF-295 CNS): 7.68 µM
TGI (SF-295 CNS): 20.2 µM
GI50 (ACHN renal): 2.95 µM
TGI (ACHN renal): 16.3 µM
GI50 (OVCAR-4 ovarian): 11.6 µM
TGI (OVCAR-4 ovarian): 24 µM
GI50 (KM12 colon): 0.547 µM
TGI (KM12 colon): 12.8 µM
GI50 (BT-549 breast): 3.37 µM
TGI (BT-549 breast): 15.4 µM
GI50 (U251 glioblastoma): 2 µM
TGI (U251 glioblastoma): 15.8 µM
GI50 (HCT-116 colon): 0.231 µM
TGI (HCT-116 colon): 3.11 µM
GI50 (HL-60(TB) leukemia): 0.184 µM
TGI (HL-60(TB) leukemia): 1.17 µM
GI50 (SK-MEL-2 melanoma): 0.186 µM
TGI (SK-MEL-2 melanoma): 0.467 µM
GI50 (T-47D breast): 9.03 µM
TGI (T-47D breast): 21.9 µM
GI50 (SK-MEL-28 melanoma): 0.12 µM
TGI (SK-MEL-28 melanoma): 0.509 µM
GI50 (NCI-H226 lung): 1.34 µM
TGI (NCI-H226 lung): 16.6 µM
GI50 (MOLT-4 leukemia): 1.66 µM
TGI (MOLT-4 leukemia): 6.58 µM
GI50 (MDA-MB-231 breast): 1.37 µM
TGI (MDA-MB-231 breast): 17.1 µM
GI50 (EKVX NSCLC): 3.46 µM
TGI (EKVX NSCLC): 17.3 µM
GI50 (SK-MEL-5 melanoma): 0.265 µM
TGI (SK-MEL-5 melanoma): 2.04 µM
GI50 (HCC-2998 colon): 0.0896 µM
TGI (HCC-2998 colon): 0.309 µM
GI50 (NCI-H322M lung): 2.88 µM
TGI (NCI-H322M lung): 19.4 µM
GI50 (NCI-H522 lung): 1.8 µM
TGI (NCI-H522 lung): 13.2 µM
GI50 (SN12C renal): 6.15 µM
TGI (SN12C renal): 21.4 µM
GI50 (NCI-H460 NSCLC): 0.758 µM
TGI (NCI-H460 NSCLC): 13.6 µM
GI50 (HOP-62 NSCLC): 3.19 µM
TGI (HOP-62 NSCLC): 19.4 µM
GI50 (SNB-19 CNS): 9.24 µM
TGI (SNB-19 CNS): 22.5 µM
GI50 (PC-3 prostate): 7.81 µM
TGI (PC-3 prostate): 21.3 µM
GI50 (RXF 393 renal): 4.14 µM
TGI (RXF 393 renal): 16.5 µM
GI50 (SW-620 colon): 0.13 µM
TGI (SW-620 colon): 1.82 µM
GI50 (DU-145 prostate): 9.92 µM
TGI (DU-145 prostate): 24.3 µM
GI50 (MDA-MB-468 breast): 6.13 µM
TGI (MDA-MB-468 breast): 16.1 µM
GI50 (SK-OV-3 ovarian): 6.86 µM
TGI (SK-OV-3 ovarian): 19.6 µM
GI50 (HS 578T breast): 10.5 µM
TGI (HS 578T breast): 22.3 µM
GI50 (CCRF-CEM leukemia): 2.89 µM
TGI (CCRF-CEM leukemia): 12.5 µM
GI50 (OVCAR-3 ovarian): 4.95 µM
TGI (OVCAR-3 ovarian): 19.6 µM
GI50 (SNB-75 CNS): 13.4 µM
TGI (SNB-75 CNS): 26.2 µM
GI50 (TK-10 renal): 2.6 µM
TGI (TK-10 renal): 17.3 µM
GI50 (NCI-H23 lung): 0.132 µM
TGI (NCI-H23 lung): 4.12 µM
GI50 (SF-268 CNS): 11 µM
TGI (SF-268 CNS): 23 µM
GI50 (LOX IMVI melanoma): 0.184 µM
TGI (LOX IMVI melanoma): 0.883 µM
GI50 (COLO 205 colon): 0.134 µM
TGI (COLO 205 colon): 1.07 µM
GI50 (786-0 renal): 3.58 µM
TGI (786-0 renal): 17.1 µM
